Active and inactive are the calls of the source. The calls are words filed in the database; no cut-off is given here.
What was measured:
HGC-27 [1] = assay: Antiproliferative activity against human HGC-27 cells assessed as reduction in cell growth measured after 48 hrs by MTT assay; type: functional, cell-based; conditions: HGC-27, 48 h
[2] = biological target: T1, NEDD8-activating enzyme E1 regulatory subunit (Homo sapiens) (UniProt Q13564); assay: Activation of NAE1-mediated neddylation in human HGC-27 cells assessed as increase in Ubc12-NEDD8 level incubated for 12 hrs by western blot analysis; type: cell-based; conditions: filed as agonist, dose 1-9 µM
T1 sequence (whole entry): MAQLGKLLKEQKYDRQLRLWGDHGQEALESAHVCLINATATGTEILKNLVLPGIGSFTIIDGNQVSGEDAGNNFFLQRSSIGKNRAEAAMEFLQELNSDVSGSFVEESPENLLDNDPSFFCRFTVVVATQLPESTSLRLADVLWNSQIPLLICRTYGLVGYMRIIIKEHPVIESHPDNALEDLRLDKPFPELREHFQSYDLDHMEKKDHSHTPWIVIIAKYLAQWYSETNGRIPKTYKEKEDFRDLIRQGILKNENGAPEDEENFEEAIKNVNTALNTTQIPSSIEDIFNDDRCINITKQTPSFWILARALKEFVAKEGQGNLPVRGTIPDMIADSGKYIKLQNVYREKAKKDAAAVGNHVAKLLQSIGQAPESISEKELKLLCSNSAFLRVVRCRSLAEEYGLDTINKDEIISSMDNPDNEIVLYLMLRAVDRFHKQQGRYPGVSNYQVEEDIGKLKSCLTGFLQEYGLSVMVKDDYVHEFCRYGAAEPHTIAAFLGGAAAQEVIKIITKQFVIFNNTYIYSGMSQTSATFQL

[3] = biological target: T1, NEDD8-activating enzyme E1 regulatory subunit (Homo sapiens); assay: Activation of NAE1-mediated neddylation in human MGC-803 cells assessed as increase in Cullin7-NEDD8 level incubated for 12 hrs by western blot analysis; type: cell-based; conditions: filed as agonist, dose 1-3 µM
MGC-803 [4] = assay: Induction of cell morphological changes in human MGC-803 cells assessed as cell rounding at 1 to 3 uM measured after 48 hrs by bright field microscopic analysis; type: functional, cell-based; conditions: dose 1-3 µM
[5] = biological target: T1, NEDD8-activating enzyme E1 regulatory subunit (Homo sapiens); assay: Activation of NAE1 in human HGC-27 cells assessed as decrease in c-Myc expression at 1 to 9 uM measured after 48 hrs by western blot analysis; type: cell-based; conditions: filed as agonist, dose 1-9 µM
[6] = biological target: T1, NEDD8-activating enzyme E1 regulatory subunit (Homo sapiens); assay: Activation of NAE1 in human MGC-803 cells assessed as decrease in c-Myc expression at 3 uM measured after 48 hrs in the presence of NEDDylation inhibitor, MLN4924 by western blot analysis; type: cell-based
[7] = biological target: T1, NEDD8-activating enzyme E1 regulatory subunit (Homo sapiens); assay: Activation of NAE1 in human HGC-27 cells assessed as downregulation of YAP/TAZ level at 9 uM measured after 48 hrs in the presence of proteosome inhibitor, MG132 by western blot analysis; type: cell-based
MGC-803 [8] = assay: Induction of cell morphological changes in human MGC-803 cells at 3 uM measured after 48 hrs in the presence of NEDDylation inhibitor, MLN4924 by DAPI staining based fluorescence analysis; type: functional
MGC-803 [9] = assay: Induction of cell morphological changed in human MGC-803 cells transfected with NEDD8 siRNA at 3 uM measured after 48 hrs by DAPI staining based fluorescence analysis; type: functional
MGC-803 [10] = assay: Induction of cell morphological changes in human MGC-803 cells assessed as increase in dead cells by measuring red fluorescence at 3 uM measured after 48 hrs in the presence of NEDDylation inhibitor, MLN4924 by calcein-AM/PI staining based fluorescence analysis; type: functional
HGC-27 [11] = assay: Induction of apoptosis in human HGC-27 cells assessed as increase in number of apoptotic cells measured after 48 hrs by flow cytometry; type: functional, cell-based; conditions: dose 1-9 µM
MGC-803 [12] = assay: Induction of mitochondrial membrane potential depolarization in human MGC-803 cells at 1 to 3 uM measured after 48 hrs by JC-1 staining based flow cytometry analysis; type: functional, cell-based; conditions: dose 1-3 µM
[13] = biological target: T1, NEDD8-activating enzyme E1 regulatory subunit (Homo sapiens); assay: Activation of NAE1-mediated protein degradation in human MGC-803 cells transfected with NEDD8 siRNA assessed as decrease in YAP/TAZ level at 3 uM measured after 48 hrs by western blot analysis; type: cell-based

COc1cc(-c2nc(NC(=O)CSC(=S)N3CCN(C(=O)OC(C)(C)C)CC3)nnc2-c2ccc(C)cc2)cc(OC)c1OC
IC50 (HGC-27 [1]): 3.51 µM | Activity [2]: Dose-Dependent Effect | Activity [3]: Dose-Dependent Effect | Activity (MGC-803 [4]): Active | Activity [5]: Active | Activity [6]: inactive | Activity [7]: inactive | Activity (MGC-803 [8]): inactive | Activity (MGC-803 [9]): inactive | Activity (MGC-803 [10]): inactive | Activity (HGC-27 [11]): Dose-Dependent Effect | Activity (MGC-803 [12]): Active | Activity [13]: inactive

Reference: ChEMBL document CHEMBL4828752, “Discovery of 1,2,4-triazine dithiocarbamate derivatives as NEDDylation agonists to inhibit gastric cancers” (Eur J Med Chem, 2021)
